Numbers after ± are expanded uncertainties.
Columns and labels:
[1] = activity coefficient (dimensionless); of the first substance listed, at infinite dilution; xn = mol fraction of the nth substance listed; conditions: 101.33 kPa, Liquid, Chromatography, x1 = 0
[2] = 101.33 kPa, Liquid, Vibrating tube method

Row | SMILES | activity coefficient ([1]; 313.15 K) | activity coefficient ([1]; 323.15 K) | activity coefficient ([1]; 333.15 K) | activity coefficient ([1]; 343.15 K) | activity coefficient ([1]; 353.15 K) | mass density ([2]; 313.15 K) [kg/m3] | mass density ([2]; 323.15 K) [kg/m3] | mass density ([2]; 333.15 K) [kg/m3] | mass density ([2]; 343.15 K) [kg/m3] | mass density ([2]; 353.15 K) [kg/m3]
1 | CC(C)CO [2-methyl-1-propanol] + CCCCCCn1cc[n+](C)c1C.F[B-](F)(F)F | 2.28 ± 0.24 | 2.15 ± 0.23 | 2.01 ± 0.21 | 1.9 ± 0.2 | 1.85 ± 0.19 | – | – | – | – | –
2 | CC(C)O [propan-2-ol] + CCCCCCn1cc[n+](C)c1C.F[B-](F)(F)F | 1.75 ± 0.18 | 1.67 ± 0.17 | 1.58 ± 0.16 | 1.46 ± 0.15 | 1.39 ± 0.14 | – | – | – | – | –
3 | CC(C)CC(C)(C)C [2,2,4-trimethylpentane] + CCCCCCn1cc[n+](C)c1C.F[B-](F)(F)F | 59.2 ± 6.2 | 59 ± 6.2 | 58.2 ± 6.1 | 57.5 ± 6.1 | 57.2 ± 6 | – | – | – | – | –
4 | CO [methanol] + CCCCCCn1cc[n+](C)c1C.F[B-](F)(F)F | 0.96 ± 0.1 | 0.91 ± 0.09 | 0.86 ± 0.09 | 0.82 ± 0.08 | 0.78 ± 0.08 | – | – | – | – | –
5 | CC#N [acetonitrile] + CCCCCCn1cc[n+](C)c1C.F[B-](F)(F)F | 0.52 ± 0.06 | 0.54 ± 0.06 | 0.56 ± 0.06 | 0.57 ± 0.06 | 0.58 ± 0.06 | – | – | – | – | –
6 | C1COCCO1 [1,4-dioxane] + CCCCCCn1cc[n+](C)c1C.F[B-](F)(F)F | 1.08 ± 0.11 | 1.09 ± 0.11 | 1.1 ± 0.11 | 1.12 ± 0.11 | 1.13 ± 0.12 | – | – | – | – | –
7 | ClCCl [dichloromethane] + CCCCCCn1cc[n+](C)c1C.F[B-](F)(F)F | 0.7 ± 0.07 | 0.74 ± 0.08 | 0.8 ± 0.08 | 0.87 ± 0.09 | 0.93 ± 0.09 | – | – | – | – | –
8 | c1ccccc1 [benzene] + CCCCCCn1cc[n+](C)c1C.F[B-](F)(F)F | 1.54 ± 0.16 | 1.55 ± 0.16 | 1.57 ± 0.16 | 1.58 ± 0.16 | 1.59 ± 0.17 | – | – | – | – | –
9 | CC1CCCCC1 [methylcyclohexane] + CCCCCCn1cc[n+](C)c1C.F[B-](F)(F)F | 25.4 ± 2.7 | 25.4 ± 2.7 | 24.9 ± 2.6 | 24.5 ± 2.6 | 23.9 ± 2.5 | – | – | – | – | –
10 | ClC(Cl)Cl [trichloromethane] + CCCCCCn1cc[n+](C)c1C.F[B-](F)(F)F | 0.68 ± 0.07 | 0.72 ± 0.08 | 0.77 ± 0.08 | 0.82 ± 0.08 | 0.87 ± 0.09 | – | – | – | – | –
11 | Cc1ccc(C)cc1 [1,4-dimethylbenzene] + CCCCCCn1cc[n+](C)c1C.F[B-](F)(F)F | 2.84 ± 0.3 | 3.05 ± 0.32 | 3.29 ± 0.35 | 3.51 ± 0.37 | 3.76 ± 0.4 | – | – | – | – | –
12 | ClC(Cl)(Cl)Cl [tetrachloromethane] + CCCCCCn1cc[n+](C)c1C.F[B-](F)(F)F | 3.5 ± 0.37 | 3.61 ± 0.38 | 3.7 ± 0.4 | 3.72 ± 0.39 | 3.86 ± 0.41 | – | – | – | – | –
13 | C1CCOC1 [tetrahydrofuran] + CCCCCCn1cc[n+](C)c1C.F[B-](F)(F)F | 1.6 ± 0.17 | 1.62 ± 0.17 | 1.63 ± 0.17 | 1.65 ± 0.17 | 1.58 ± 0.16 | – | – | – | – | –
14 | C1CCCCC1 [cyclohexane] + CCCCCCn1cc[n+](C)c1C.F[B-](F)(F)F | 19.8 ± 2.1 | 19.6 ± 2.1 | 19.5 ± 2 | 19.1 ± 2 | 18.9 ± 2 | – | – | – | – | –
15 | C1=CCCCC1 [cyclohexene] + CCCCCCn1cc[n+](C)c1C.F[B-](F)(F)F | 9.89 ± 1 | 9.67 ± 1 | 9.51 ± 1 | 9.36 ± 0.98 | 9.08 ± 0.95 | – | – | – | – | –
16 | Cc1ccccc1 [toluene] + CCCCCCn1cc[n+](C)c1C.F[B-](F)(F)F | 2.21 ± 0.23 | 2.26 ± 0.24 | 2.31 ± 0.24 | 2.35 ± 0.25 | 2.4 ± 0.25 | – | – | – | – | –
17 | CCc1ccccc1 [ethylbenzene] + CCCCCCn1cc[n+](C)c1C.F[B-](F)(F)F | 3.81 ± 0.4 | 3.84 ± 0.4 | 3.88 ± 0.41 | 3.93 ± 0.41 | 3.95 ± 0.42 | – | – | – | – | –
18 | CC(C)=O [acetone] + CCCCCCn1cc[n+](C)c1C.F[B-](F)(F)F | 0.84 ± 0.09 | 0.87 ± 0.09 | 0.9 ± 0.09 | 0.93 ± 0.09 | 0.96 ± 0.1 | – | – | – | – | –
19 | Cc1cccc(C)c1 [1,3-dimethylbenzene] + CCCCCCn1cc[n+](C)c1C.F[B-](F)(F)F | 3.37 ± 0.35 | 3.46 ± 0.36 | 3.59 ± 0.38 | 3.67 ± 0.39 | 3.79 ± 0.4 | – | – | – | – | –
20 | Cc1ccccc1C [1,2-dimethylbenzene] + CCCCCCn1cc[n+](C)c1C.F[B-](F)(F)F | 2.38 ± 0.25 | 2.57 ± 0.27 | 2.76 ± 0.29 | 2.97 ± 0.31 | 3.16 ± 0.33 | – | – | – | – | –

The next lines start with the values.

Row | activity coefficient ([1]; 313.15 K) | activity coefficient ([1]; 323.15 K) | activity coefficient ([1]; 333.15 K) | activity coefficient ([1]; 343.15 K) | activity coefficient ([1]; 353.15 K) | mass density ([2]; 313.15 K) [kg/m3] | mass density ([2]; 323.15 K) [kg/m3] | mass density ([2]; 333.15 K) [kg/m3] | mass density ([2]; 343.15 K) [kg/m3] | mass density ([2]; 353.15 K) [kg/m3] | SMILES
21 | 47.9 ± 5 | 45.4 ± 4.8 | 42.8 ± 4.5 | 40.2 ± 4.2 | 37.4 ± 3.9 | – | – | – | – | – | CCCCCCC [heptane] + CCCCCCn1cc[n+](C)c1C.F[B-](F)(F)F
22 | – | – | – | – | – | 1129.8 ± 2.4 | 1123.3 ± 2.4 | 1116.8 ± 2.4 | 1110.3 ± 2.4 | 1103.87 ± 2.4 | CCCCCCn1cc[n+](C)c1C.F[B-](F)(F)F [1-hexyl-2,3-dimethylimidazolium tetrafluoroborate]
23 | 2.01 ± 0.21 | 2.12 ± 0.22 | 2.16 ± 0.23 | 2.21 ± 0.23 | 2.26 ± 0.24 | – | – | – | – | – | CCOC(C)=O [ethyl acetate] + CCCCCCn1cc[n+](C)c1C.F[B-](F)(F)F
24 | 65.1 ± 6.8 | 64.1 ± 6.8 | 62.1 ± 6.5 | 61.2 ± 6.4 | 60.4 ± 6.4 | – | – | – | – | – | CCCCCCCC [octane] + CCCCCCn1cc[n+](C)c1C.F[B-](F)(F)F
25 | 2.77 ± 0.29 | 2.67 ± 0.28 | 2.5 ± 0.3 | 2.37 ± 0.25 | 2.27 ± 0.24 | – | – | – | – | – | CCCCO [butan-1-ol] + CCCCCCn1cc[n+](C)c1C.F[B-](F)(F)F
26 | 89.5 ± 9.4 | 83.5 ± 8.8 | 77.8 ± 8.2 | 72.6 ± 7.7 | 67.4 ± 7.1 | – | – | – | – | – | CCCCCCCCC [nonane] + CCCCCCn1cc[n+](C)c1C.F[B-](F)(F)F
27 | 125 ± 13 | 121 ± 13 | 112 ± 12 | 102 ± 11 | 92 ± 9.7 | – | – | – | – | – | CCCCCCCCCC [decane] + CCCCCCn1cc[n+](C)c1C.F[B-](F)(F)F
28 | 2.65 ± 0.28 | 2.56 ± 0.27 | 2.48 ± 0.26 | 2.38 ± 0.25 | 2.28 ± 0.24 | – | – | – | – | – | CCC(C)O (stereo not given) [butan-2-ol] + CCCCCCn1cc[n+](C)c1C.F[B-](F)(F)F
29 | 28.9 ± 3 | 25.6 ± 2.7 | 22.9 ± 2.4 | 20.6 ± 2.2 | 18.8 ± 2 | – | – | – | – | – | CCCCC [pentane] + CCCCCCn1cc[n+](C)c1C.F[B-](F)(F)F
30 | 1.74 ± 0.18 | 1.65 ± 0.17 | 1.53 ± 0.16 | 1.43 ± 0.15 | 1.33 ± 0.14 | – | – | – | – | – | CCCO [propan-1-ol] + CCCCCCn1cc[n+](C)c1C.F[B-](F)(F)F
31 | 1.4 ± 0.14 | 1.31 ± 0.13 | 1.23 ± 0.13 | 1.16 ± 0.12 | 1.09 ± 0.11 | – | – | – | – | – | CCO [ethanol] + CCCCCCn1cc[n+](C)c1C.F[B-](F)(F)F
32 | 31 ± 3.3 | 29.5 ± 3.1 | 27.9 ± 2.9 | 26.3 ± 2.8 | 25 ± 2.6 | – | – | – | – | – | CCCCCC [hexane] + CCCCCCn1cc[n+](C)c1C.F[B-](F)(F)F

Source: the NIST ThermoML archive (doi:10.1016/j.jct.2018.05.017)
